Reference: patent publication US20080318989A1, “Pyrimidine Kinase Inhibitors” (priority 2005, published 2008)

Experiments:
Aurora A = target: T1, Aurora A (Homo sapiens, UniProt O14965); test: Aurora A in vitro kinase assay (ELISA); format: biochemical; details: 30 μM ATP, 45 minutes
T1 sequence (O14965 1-403): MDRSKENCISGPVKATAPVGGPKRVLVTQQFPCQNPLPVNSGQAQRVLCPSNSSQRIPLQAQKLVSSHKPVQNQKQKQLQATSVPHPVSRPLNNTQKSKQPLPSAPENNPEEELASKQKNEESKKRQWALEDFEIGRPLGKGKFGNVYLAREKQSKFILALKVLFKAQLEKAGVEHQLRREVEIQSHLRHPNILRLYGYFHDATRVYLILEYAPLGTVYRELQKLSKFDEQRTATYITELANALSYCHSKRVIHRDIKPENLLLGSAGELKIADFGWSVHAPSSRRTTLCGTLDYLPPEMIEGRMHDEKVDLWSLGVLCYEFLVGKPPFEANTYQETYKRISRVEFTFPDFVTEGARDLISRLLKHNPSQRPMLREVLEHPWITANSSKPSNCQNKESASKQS
Procedure: Kinase activities were measured by Enzyme-Linked Immunosorbent Assay (ELISA): Maxisorp 384-well plates (Nunc) were coated with recombinant fusion protein comprising residues 1-15 of Histone H3 fused to the N-terminus of Glutathione-S-Transferase. Plates were then blocked with a solution of 1 mg/mL I-block (Tropix Inc) in phosphate-buffered saline. Kinase reactions were carried out in the wells of the ELISA plate by combining an appropriate amount of Aur A and B kinases and/or mutants thereof with test compound and 30 μM ATP. The reaction buffer was 1× Kinase Buffer (Cell Signaling Technologies) supplemented with 1 μg/mL I-block. Reactions were stopped after 45 minutes by addition of 25 mM EDTA. After washing, substrate phosphorylation was detected by addition of anti-phospho-Histone H3 (Ser 10) 6G3 mAb (Cell Signaling cat #9706) and sheep anti-mouse pAb-HRP (Amersham cat# NA931V), followed by calorimetric development with TMB.

[1] = system: HCT116 colon cancer cell line; test: Cellular proliferation/viability assay (Cell-Titer-Glo), HCT116; format: cell-based; details: Homo sapiens, HCT-116, 120 h; HCT116, 5 days incubation
Procedure: (§1) Potency of test compounds in inhibiting cellular proliferation and/or cellular viability was estimated using a cellular ATP assay (Cell-Titer-Glo, Promega). Cells (HCT116, HT29 colon cancer cell lines, MCF-7 breast cancer cell line) were seeded in 384-well plates (Greiner μClear) at an appropriate density in 50:50 DMEM/Hams F-12 medium supplemented with 10% fetal calf serum, and allowed to attach overnight. Test compounds were sequentially diluted in DMSO and then culture medium, and added to the cells at appropriate concentrations. Cells were incubated with compound for 5 days. Cell number/viability was estimated using Cell-Titer-Glo reagent (Promega) according to manufacturers instructions.

[2] = system: HT29 colon cancer cell line; test: Cellular proliferation/viability assay (Cell-Titer-Glo), HT29; format: cell-based; details: Homo sapiens, HT-29, 120 h; HT29, 5 days incubation
Procedure: as §1

Row | SMILES | IC50 (Aurora A) | IC50 [1] | IC50 [2]
1 | CCN1C(=O)C(C)(C)c2cc(Nc3ncc(F)c(Nc4ccc(C(=O)Nc5ccccn5)cc4)n3)ccc21 [compound 26] | 23.1 nM | – | –
2 | O=C(Nc1ccccc1Nc1nc(Nc2ccc3c(c2)CS(=O)(=O)C3)ncc1Cl)C1CC1 [compound 58] | 0.6 nM | – | –
3 | CC(=O)N1CC(C)(C)c2cc(Nc3ncc(Cl)c(Nc4ccccc4C(=O)NC4CC4)n3)ccc21 [compound 48] | 24.8 nM | – | –
4 | CCN1C(=O)C(C)(C)c2cc(Nc3ncc(Cl)c(Nc4ccccc4NC(=O)/C=C/c4ccccc4)n3)ccc21 [compound 49] | – | 110 nM | 100 nM
5 | O=C(/C=C/c1ccccc1)Nc1ccccc1Nc1nc(Nc2ccc3c(c2)CC(=O)N3)ncc1Cl [compound 50] | 6 nM | – | –
6 | CC(=O)N1CCc2cc(Nc3ncc(Cl)c(Nc4ccccc4C(=O)NC4CC4)n3)ccc21 [compound 44] | 2.1 nM | – | –
7 | CN1C(=O)C(C)(C)c2cc(Nc3ncc(F)c(Oc4ccc(C(=O)Nc5ccccn5)cc4)n3)ccc21 [compound 59] | 10.4 nM | – | –
8 | COCCN1C(=O)C(C)(C)c2cc(Nc3ncc(F)c(Nc4ccccc4NC(=O)C4CC4)n3)ccc21 [compound 38] | 7.2 nM | – | –
9 | CCN1C(=O)C(C)(C)c2cc(Nc3ncc(F)c(Nc4ccc(C(=O)NC(C)(C)C)cc4)n3)ccc21 [compound 5] | 10.8 nM | – | –
